Each structure is given as a SMILES string. “And” between values parts separate entries of the source, which are not always exact repeats. Identical values can stand only once. Where only a bound is given, the exact number is not on record here.

This note sets out measurements from PubChem BioAssay AID1963849 (Molecular Pharmacology Branch, DTP, NCI, 2024).

This assay deals with 299254-011-R-J1-PDC complex spheroid viability. Nature of the assay: Anticancer human tumor 299254-011-R-J1-PDC patient-derived melanoma cell line growth inhibition [POLQ]. The note with it: for viability, T/C: stronger effect = lower value. The method, then: Multicellular complex tumor spheroid response to Polymerase (POL) inhibitors (novobiocin, ART-558, RP6685) in combination with a variety of drugs and investigational agents in selected tumor cell lines
The POL inhibitors (novobiocin, ART-558, and RP6685) were evaluated both individually and in combination with standard of care and investigational anticancer small molecules within a complex spheroid model of solid tumors. . Complex spheroids include a stromal component modeled by human endothelial cells (HUVEC) and fibroblasts modeled by human mesenchymal stem cells (MSCs). The concentration ranges selected for each drug and investigational agent were based upon clinically achievable concentrations if the clinical Cmax of the agent was known.
Compounds. The drugs and investigational agents: novobiocin (NSC847541), ART-558 (NSC835418), RP-6685 (NSC848927), peposertib (NSC802822), ceralasertib (NSC780249), elimusertib (NSC800525), camonsertib (NSC841442), AZD-1390 (NSC803789), olaparib (NSC753686), talazoparib (NSC767125), rucaparib (NSC756644), sotorasib (NSC818433), MRTX-1133 (NSC836407), SN-38 (NSC673596), topotecan (NSC609699), epotoside (NSC141540), doxorubicin (NSC123127), gemcitabine (NSC613327), 5-fluorouracil (NSC19893), paclitaxel (NSC125973), vemurafenib (NSC761431), MSA-2 (NSC828583), SN-011 (NSC837082), adavosertib (NSC754352), prexasertib (NSC758257), carboplatin (NSC241240) and oxaliplatin (NSC266046), were obtained from the National Cancer Institute (NCI) Developmental Therapeutics Program Chemical Repository (21). The FDA-approved anticancer drug set is available from the Developmental Therapeutics Program at https://dtp.cancer.gov/organization/dscb/obtaining/. […] The stock solutions were prepared in dimethyl sulfoxide (DMSO, Sigma-Aldrich, St. Louis, MO, cat. D2650), except for the platinum compounds which were prepared in saline (Quality Biological, Gaithersburg, MD, cat. 114-055-101), at 800-fold the tested concentration and stored at -70 degrees C prior to their use. All drugs and investigational agents were tested over a range starting from a high concentration at or near the clinical Cmax and decreasing in half-log increments. If the clinical Cmax for an agent had not been determined, the highest concentration tested was 10 microM, except for SN-38, which was tested at a high concentration of 1 microM.
Cell Culture. All cells were maintained in an incubator at 37 degrees C and 5% CO2 with 95% humidity. The PDC lines were cultured according to standard operating procedures established by the NCI PDMR (https://pdmr.cancer.gov). Table 3 of the manuscript, lists the cell lines along with the number of the three cell types plated to form the mct-spheroids and media for tumor cell growth. After thawing, all PDC lines, except 997537-175-T-J1-PDC and 415267-285-R-J2-PDC, were cultured in Matrigel-coated flasks prepared with a working solution of 1X Ham's F-12 nutrient mix, without supplementation (Thermo Fisher Scientific, cat. 11765054), 100 U/mL penicillin-streptomycin (Thermo Fisher Scientific, cat. 15140122), and 2.5% Matrigel (Corning Inc., Corning, NY, cat. 354248) for the first three passages. The two PDC lines 997537-175-T-J1-PDC and 415267-285-R-J2-PDC were cultured on uncoated flasks. The 857933-349-R-J2-PDC line was cultured in 6C/Colon 1B media containing advanced DMEM/F-12 (Thermo Fisher Scientific, cat. 12634028), 10 mM HEPES (Thermo Fisher Scientific, cat. 15630080), 1X GlutaMAX supplement (Thermo Fisher Scientific, cat. 35050061), 0.1 mg/mL primocin (InvivoGen, San Diego, CA, cat. ant-pm-2), 10% defined fetal bovine serum, heat inactivated (HyClone Laboratories Inc., Logan, UT, cat. SH30070.03HI), 50% L-WRN conditioned media (ATCC, cat. CRL-3276), 1.25 mM N-Acetyl-L-cysteine (Sigma-Aldrich, cat. A9165), 10 mM nicotinamide (Sigma-Aldrich, cat. N0636), 1X B-27 supplement (Thermo Fisher Scientific, cat. 17504044), 1X N-2 supplement (Thermo Fisher Scientific, cat. […]
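Also: spheroids exposed to drugs for one week before measurement.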
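For viability, T/C in this document: percent viability relative to DMSO vehicle control taken as 100%.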

A word on the viability, T/C: it is the result in the treated group divided by that in the control group, in per cent. A word on the IC50: it is the concentration at which inhibition is half-maximal. For the compound `Cn1ncnc1[C@H]1c2n[nH]c(=O)c3cc(F)cc(c23)N[C@@H]1c1ccc(F)cc1`, the viability, T/C runs as follows: (compound 0.000316 µM) 107% and 92.2% and 97.5%; (compound 0.001 µM) 108% and 87.9% and 99%; (compound 0.00316 µM) 110% and 111% and 116%; (compound 0.01 µM) 124% and 107% and 98.2%; (compound 0.0316 µM) 128% and 92.6% and 95.2%; (compound 0.1 µM) 101% (2×) and 99.2%. Besides, the 50% inhibitory concentration (IC50) (curve of compound) was above 0.1 µM.

For `Nc1ccn(C2OC(CO)C(O)C2(F)F)c(=O)n1` (stereo not given), the viability, T/C was 73.4% and 61.2% and 61% (compound 0.0316 µM); 37.7% and 47.8% and 35.1% (compound 0.1 µM); 42.1% and 40.7% and 40.9% (compound 0.316 µM); 40.9% and 50.7% and 30.8% (compound 1 µM); 37.9% and 48.4% and 41.9% (compound 3.16 µM); 41.2% and 42.5% and 33.8% (compound 10 µM). In addition, the IC50 (curve of compound) is 0.0708 µM and 0.0788 µM and 0.053 µM.

As for `CC1COCCN1c1cc(C2(S(C)(=N)=O)CC2)nc(-c2ccnc3[nH]ccc23)n1` (stereo not given), the viability, T/C by setting is: (compound 0.0316 µM) 92.2% and 108% and 93.8%; (compound 0.1 µM) 101% and 108% and 94.5%; (compound 0.316 µM) 106% and 104% and 111%; (compound 1 µM) 85.5% and 84.5% and 95%; (compound 3.16 µM) 57.9% and 60.5% and 65.8%; (compound 10 µM) 41.8% and 43.3% and 37.2%. Also, for the setting “curve of compound”, the IC50 is 5.43 µM and 6.33 µM and 5.97 µM.

Regarding `O=C(Nc1ccc(O)c(NS(=O)(=O)c2ccc(F)cc2)c1)c1ccc(-c2ccccc2)cc1`, the viability, T/C reads like this: (compound 0.0316 µM) 93.4% and 116% (2×); (compound 0.1 µM) 99.8% and 93% and 108%; (compound 0.316 µM) 110% and 99.2% and 96.8%; (compound 1 µM) 91.6% and 92.6% and 111%; (compound 3.16 µM) 111% and 88.9% and 86.7%; (compound 10 µM) 52% and 54.8% and 46.6%. For the same compound, the half-maximal inhibitory concentration (IC50) (curve of compound) is > 10 µM and 9.06 µM.

Consider `COc1cc2cc(C(=O)CCC(=O)O)sc2cc1OC`, for which the viability, T/C was 107% and 89.4% and 110% (compound 0.0316 µM); 94.7% and 99.2% and 93.1% (compound 0.1 µM); 106% and 87.4% and 93.6% (compound 0.316 µM); 103% and 100% and 97.2% (compound 1 µM); 113% and 103% and 108% (compound 3.16 µM); 103% and 104% and 101% (compound 10 µM). Besides, the half-inhibitory concentration (IC50) (curve of compound) is above 10 µM.

Turning to `Nc1ccc(C#CCN(C(=O)Cc2ncc(C(F)(F)F)cc2C(F)(F)F)c2ccc(F)cc2)nn1`, the viability, T/C is 102% [middle of 13 runs] (compound 0.0316 µM); 104% [middle of 13 runs] (compound 0.1 µM); 102% [middle of 13 runs] (compound 0.316 µM); 96.5% [middle of 13 runs] (compound 1 µM); 96.5% [middle of 13 runs] (compound 3.16 µM); 95.6% [middle of 13 runs] (compound 10 µM). Further, the 50% inhibitory concentration (IC50) (compound alone, run of 12/05/2023) is above 10 µM.

In the case of `COC1C(OC(N)=O)C(O)C(Oc2ccc3c(O)c(NC(=O)c4ccc(O)c(CC=C(C)C)c4)c(=O)oc3c2C)OC1(C)C` (stereo not given), under “compound 3.16 µM”, the viability, T/C was 102% [middle of 13 runs]. The IC50 (compound alone, run of 11/27/2023) is above 10 µM.

With `CC[C@@]1(O)C(=O)OCc2c1cc1n(c2=O)Cc2cc3c(CN(C)C)c(O)ccc3nc2-1`, the viability, T/C runs as follows: (compound 0.000316 µM) 98.9% and 101% and 112%; (compound 0.001 µM) 94.2% and 113% and 101%; (compound 0.00316 µM) 106% and 89.5% and 111%; (compound 0.01 µM) 103% (2×) and 114%; (compound 0.0316 µM) 107% and 108% and 94.4%; (compound 0.1 µM) 78.4% and 81.1% and 72.7%. Further, the IC50 (curve of compound) is above 0.1 µM.

As for `CC1COCCN1c1cc(C2(S(C)(=N)=O)CC2)nc(-c2ccnc3[nH]ccc23)n1` (stereo not given) + Cc1cccc(N(C)C(=O)C2C(O)CCN2c2nc(C)cc(C(F)(F)F)c2C#N)c1, the IC50 worked out at 6.32 µM (curve of first compound, second compound 0.0316 µM); 5.32 µM (curve of first compound, second compound 0.1 µM); 7 µM (curve of first compound, second compound 0.316 µM); 6.25 µM (curve of first compound, second compound 1 µM); 4.22 µM (curve of first compound, second compound 3.16 µM); 2.67 µM (curve of first compound, second compound 10 µM). Moreover, the viability, T/C is 105% (second compound 0.0316 µM, first compound 0.0316 µM); 99% (second compound 0.0316 µM, first compound 0.1 µM); 87.2% (second compound 0.0316 µM, first compound 0.316 µM); 79.6% (second compound 0.0316 µM, first compound 1 µM); 66.4% (second compound 0.0316 µM, first compound 3.16 µM); 39.4% (second compound 0.0316 µM, first compound 10 µM). Besides, the viability, T/C (second compound 0.1 µM, first compound 0.0316 µM) was 108%; the viability, T/C (second compound 0.1 µM, first compound 0.1 µM) was 103%; the viability, T/C (second compound 0.1 µM, first compound 0.316 µM) is 91.1%; the viability, T/C (second compound 0.1 µM, first compound 1 µM) is 80.1%; the viability, T/C (second compound 0.1 µM, first compound 3.16 µM) was 61%; the viability, T/C (second compound 0.1 µM, first compound 10 µM) is 36.7%. Moreover, the viability, T/C (second compound 0.316 µM, first compound 0.0316 µM) is 99.1%; the viability, T/C (second compound 0.316 µM, first compound 0.1 µM) is 97.4%; the viability, T/C (second compound 0.316 µM, first compound 0.316 µM) was 91.6%; the viability, T/C (second compound 0.316 µM, first compound 1 µM) was 96.6%; the viability, T/C (second compound 0.316 µM, first compound 3.16 µM) is 66%; the viability, T/C (second compound 0.316 µM, first compound 10 µM) was 42.8%. Also, the viability, T/C by setting is: (second compound 1 µM, first compound 0.0316 µM) 93%; (second compound 1 µM, first compound 0.1 µM) 92.5%; (second compound 1 µM, first compound 0.316 µM) 104%; (second compound 1 µM, first compound 1 µM) 94.3%; (second compound 1 µM, first compound 3.16 µM) 70.9%; (second compound 1 µM, first compound 10 µM) 35.6%. Moreover, the viability, T/C runs as follows: (second compound 3.16 µM, first compound 0.0316 µM) 90.4%; (second compound 3.16 µM, first compound 0.1 µM) 92.7%; (second compound 3.16 µM, first compound 0.316 µM) 100%; (second compound 3.16 µM, first compound 1 µM) 92.3%; (second compound 3.16 µM, first compound 3.16 µM) 54.4%; (second compound 3.16 µM, first compound 10 µM) 36.8%. For the same compound, the viability, T/C by setting is: (second compound 10 µM, first compound 0.0316 µM) 93%; (second compound 10 µM, first compound 0.1 µM) 92.7%; (second compound 10 µM, first compound 0.316 µM) 93.8%; (second compound 10 µM, first compound 1 µM) 63.7%; (second compound 10 µM, first compound 3.16 µM) 52.7%; (second compound 10 µM, first compound 10 µM) 37.9%.

Regarding `CNCc1ccc(-c2[nH]c3cc(F)cc4c3c2CCNC4=O)cc1`, the viability, T/C reads like this: (compound 0.0316 µM) 117% and 108% and 100%; (compound 0.1 µM) 95.8% and 94.7% and 99.7%; (compound 0.316 µM) 113% and 105% and 97.2%; (compound 1 µM) 109% and 96.3% and 92.8%; (compound 3.16 µM) 111% and 113% and 110%; (compound 10 µM) 119% and 107% and 109%. Under “curve of compound”, the IC50 is above 10 µM.
